Test results as given in US6979682B2, “Platelet-activating factor antagonist inhibition of angiogenesis and tumor growth induced by basic fibroblast” (Board of Supervisors of Louisiana State University and …, priority 2001, dated 2005).

Columns and labels:
PC-3 cells = assay: in vitro cell growth assay, [3H]thymidine incorporation, PC-3; assay type: cell-based, human
Experimental: The human prostatic carcinoma cell line PC-3 was grown in RPMI 1640 (Life Technologies, Grand Island, […].) supplemented with 10% fetal bovine serum (“FBS”, Life Technologies). The human cell line 201T was established from a poorly differentiated lung adenocarcinoma, as previously described using the method of J. M. Siegfried et al., “Secretion of autocrine growth factors by cultured lung tumors: effects on neoplastic lung epithelial cells,” Lung Cancer, vol. 4, pp. 205–209 (1988). See also J. P. Hamide et al., “Percutaneous implantation of non-small cell lung carcinoma: technique and observations,” Academ. Radiolo., vol. 4, pp. 629–633 (1997). The cell line was grown in a medium conditioned for 48 hours by the cell line A549 (ATCC CCL-185) containing 1% FBS (HyClone Laboratories, Logan, Utah) as previously described in J. M. Siegfried, “Culture of primary lung tumors using medium conditioned by a lung carcinoma cell line,” J. Cell. Biochem., vol. 41, pp. 91–95 (1988). This medium is referred to as CM+1% FBS.
PC-3 cells were exposed to 0, 0.1, 1, 2.5, 5, and 10 μM BN-50730 in RPMI medium supplemented with 10% FBS and [^3H]thymidine (Amersham Life Science, Arlington Heights, Ill.). […] PC-3 and 201T cells were also exposed to 10 μM BN-50730 for 24, 48, 72 and 144 hours, and cell growth assessed as above. […]

[1] = tested on: human umbilical vein endothelial cells (HUVEC); assay: HUVEC proliferation, [3H]thymidine incorporation; assay type: cell-based
Experimental: Human umbilical vein endothelial cells (“HUVEC”) were propagated in one of three growth media depending on the experimental conditions. HUVEC were maintained in endothelial basal medium (“EBM-2”) (Clonetics, Walkersville, Md.) supplemented with 2% FBS (Clonetics). HUVEC were also grown in endothelial growth medium (“EGM”) (Clonetics), which contained 3 mg/ml (protein content) bovine brain extract, 10 ng/ml EGF ([…]), 1 μg/ml hydrocortisone, 2% FBS, gentamicin, and amphotericin-B. HUVEC were likewise grown in EGM-2, supplemented with VEGF ([…]), R^3-IGF-1 (long recombinant-3 insulin-like growth factor-1), ascorbic acid, heparin, 2% FBS, EGF, bFGF, gentamicin, and amphotericin-B.
Based on the above in vitro tumor data, the effect of BN-50730 on tumor growth is believed to result from inhibition of angiogenesis. To test this theory, the effect of BN-50730 on angiogenesis of HUVEC cells was measured using two growth media designed to induce rapid proliferation, EGM or EGM-2. HUVEC growth was measured by [^3H]thymidine incorporation into DNA.
As many tumors are known to produce angiogenesis-inducing factors, an experiment was conducted to test for increased proliferation of HUVEC cells exposed to 201T-conditioned medium. 201T cells were allowed to condition basal medium (EBM supplemented with 2% FBS) for 48 hr. […] EGM-2 is a medium containing the growth factors bFGF, VEGF, IGF-1, and EGF.
To characterize the inhibitory effects of BN-50730 on HUVEC proliferation, a series of growth assays was performed in which growth factors were either added or omitted singly from the growth medium in the presence or absence of BN-50730. The cells were grown in a medium supplemented with [^3H]thymidine, in either the presence or absence of BN-50730. Cells that proliferate will incorporate [^3H]thymidine into their DNA. In the first experiment, individual growth factors VEGF, IGF-1, bFGF, or EGF were added to EBM-2 supplemented with 2% FBS. […] This experiment supports the hypothesis that different cellular mechanisms use different peptide growth factors.
In a subsequent experiment, mixtures of the growth factors were analyzed, with only one growth factor absent from the medium, and each of the other three were present, in the presence or absence of 10 μM BN-50730. […] However, no reduction was seen when bFGF was absent.

bFGF = assay: Western blot analysis of cell lysates for bFGF; assay type: cell-based, human; details: 5 μM, 18 hr prior to cell harvest
Experimental: HUVEC, PC-3, and 201T cells were grown to 75% confluency in the appropriate growth media. BN-50730 (5 μM) or vehicle (DMSO) was added to each cell line 18 hr prior to cell harvest. Cells were washed three times in phosphate-buffered saline (“PBS”) and scraped into Lemely buffer which lacked bromophenol blue and β-mercaptoethanol (0.1 M NaCl, 0.01M Tris-HCl (pH 7.6), 0.001 M EDTA, 1 μg/ml aprotinin, 100 μg/ml phenylmethylsulfonyl flouride, 2% SDS, and 10% glycerol). The cell suspension was boiled for 10 min and then immediately stored at −20° C. Protein levels were quantified using a Bio-Rad Protein Assay (Bio-Rad, Hercules, Calif.). Protein samples (20 μg) were separated through a 10–20% denaturing gradient acrylamide gel in Tris-glycine buffer and transferred to nitrocellulose (Bio-Rad) by electrophoretic blotting. […] Primary antibody was detected using alkaline phosphatase-conjugated goat anti-mouse IgG (Bio-Rad).
The methods were as in Example 1. Lysates were analyzed from HUVEC cells grown in the presence of DMSO (Lane 1) or 5 μM BN-50730 (Lane 2); PC-3 cells grown in the presence of DMSO (Lane 3) or 5 μM BN-50730 (Lane 4); and 201T cells grown in the presence of DMSO (Lane 5) or 5 μM BN-50730 (Lane 6). […]

[2] = visual observation of side effects in treated mice; assay type: in vivo, NCr athymic nude mice; details: mice treated at any dose
[3] = tested on: PAF binding sites (microsomal intracellular membranes; synaptosomal plasma membrane); details: Marcheselli and Bazan, 1994; cited from earlier work

Compound: COc1ccc(NC(=O)N2CCc3c(sc4c3C(c3ccccc3Cl)=NCc3nnc(C)n3-4)C2)cc1 [BN-50730, tetrahydro-4,7,8,10 methyl-1 (chloro-2 phenyl)-6 (methoxy-4 phenyl-carbomoyl)-9 pyrido [4′,3′-4,5] thieno [3,2-f] triazolo-1,2,4[4,3-α]diazepine-1,4]
- PC-3 cell proliferation, time course (PC-3 cells; 10 μM at 1, 2, 3 or 6 days, p=0.556, F-test): no effect
- PC-3 cell proliferation, concentration response (PC-3 cells; 0.01, 0.1, 1, 2.5, 5, 10 μM for 4 days, p=0.529 for 10 μM): not affected
- HUVEC growth in EGM or EGM-2 medium ([1]; 5 μM, both growth conditions, p=0.001, Student's t-test): significantly reduced the growth of HUVEC
- stimulation of HUVEC growth in 201T-conditioned medium or EGM-2 medium ([1]; 5 μM, either medium): inhibited
- HUVEC growth in medium containing EGF as single growth factor ([1]; 10 μM, EBM-2 + 2% FBS + EGF): No difference
- HUVEC growth in medium containing IGF-1 as single growth factor ([1]; 10 μM, EBM-2 + 2% FBS + IGF-1): No difference
- HUVEC growth in medium containing VEGF as single growth factor ([1]; 10 μM, EBM-2 + 2% FBS + VEGF, p=0.036): small, but significant
- HUVEC growth in medium containing bFGF as single growth factor ([1]; 10 μM, EBM-2 + 2% FBS + bFGF, p=0.0002): larger reduction
- HUVEC growth in medium with bFGF absent ([1]; 10 μM, VEGF, IGF-1 and EGF present): no reduction
- HUVEC growth in medium lacking only VEGF, IGF-1 or EGF ([1]; 10 μM, other three growth factors present): reduction in growth
- production of bFGF by 201T and PC-3 cells (bFGF): does not inhibit the production of bFGF
- side effects, visual observations [2]: no apparent side effects
- displacement of PAF from microsomal membranes [3]: displace PAF from microsomal membranes
- displacement of PAF from the synaptosomal, plasma membrane [3]: not from the synaptosomal, plasma membrane
